As a reminder, the LD50 is the dose at which mortality reaches 50%. One may read the ED50 as the dose at which the effect has come halfway, by size or by number of responders.

Like-named read-outs stand apart in the source and are kept apart here.

The test system of one data set is Swiss I.O.P.S. mice. Description: in vivo. To be noted: Swiss I.O.P.S. mouse. The procedure: (§1) The study is carried out with Swiss I.O.P.S. mice, in lots of 20 animals of both sexes.
In data set [1] the test system is Sprague-Dawley I.O.P.S. rat. Description: Acute toxicity LD50 oral vs i.p. and B/P ratio, rat. The class given is in vivo. From the text: (§2) It has been determined that this discovery is not appropriate to a particular animal, by making the same observation for the Sprague-Dawley I.O.P.S. rat where the B/P ratio for magnesium chloride is greater than […]. For the respective compounds of Examples 13 and 14, the ratio is reduced in a most significant manner (p<0.001), to 3.3/2.2=1.5 and […].

A further data set in a line: Solubility. The class given is physicochemical.
The next data set is described as follows: in vivo. To be noted: mouse, in vivo. The method, then:
as §1

The nature of data set [2]: Test of Frances et al. (ED50 rolling, trembling).
For data set [3] the following is noted: kainic acid administered systemically to the rat; Fariello et al. 1980; cited from earlier work.
Data set [4] is described as follows: Antagonism of neurotoxic/convulsant activity of kainic acid, wet dog shaking (test of Fariello et al.). The class given is in vivo, rat. To be noted: per os. The procedure:
(§3) By way of example, the compounds are tested, on one hand by the test of Macallum et al., Can.

A further data set has as its system insulin. Description: Potentiation of the hypoglycemic activity of insulin (test of Macallum et al.). In kind it is in vivo, rabbit. The settings on record: for potentiation of the hypoglycemic activity of insulin, intravenous / potentiation of the hypoglycemic activity of insulin, oral: intravenous; for potentiation of the hypoglycemic activity of insulin, oral: non-convulsant dose of insulin; for oral activity after the metabolic and neurologic tests: summary of insulin potentiation and kainic acid tests. The method, then:
as §3

The subject of data set [5] is Sprague-Dawley I.O.P.S. rats. Description: Oral magnesium recharge in magnesium-deficient rats. In kind it is in vivo, rat (Sprague-Dawley I.O.P.S.). The settings on record: for onset of correction of erythrocyte magnesium: 40, 20 or 5 mg magnesium/kg/day; for aggression of deficient rats with respect to mice (muricide activity): magnesium-deficient rats (25 ppm Mg); for erythrocyte magnesium level (hypercorrection): third day, deficient animals 40 mg, controls 60 mg.

Data set [6] is described as follows: Acute toxicity LD50 oral vs i.p. and B/P ratio, rat. To be noted: in vivo, Sprague-Dawley I.O.P.S. rat. The class given is in vivo.
Source text: as §2

The nature of data set [7]: Therapeutic use in a patient with latent tetany by magnesium deficiency. The class given is in vivo, human. The method, then: was attacked by latent tetany by magnesium deficiency. They were treated for two years by various forms of magnesotherapy: 3 g magnesium lactate per day or three drinkable ampoules of magnesium pyroglutamate (standardised 127 mg Mg^2+ per ampoule) per day, without succeeding in correcting an erythrocyte magnesium level varying from 43 to 46 mg/l. A prescription of 3 gelatine-coated pills of the compound of Example 13 led to a regression of […] (headache, asthenia, cramp) and the increase, to 48 mg/l in the first month and to 53 mg/l in the second month, of the erythrocyte magnesium level. Ultimately, it was nevertheless observed that each interruption in administration of the product was followed, in the subsequent chemical and biological monthly control, by a relapse (comprising the symptomotology and reduction of the erythrocyte magnesium level to about 45 mg/l).

The nature of data set [8]: Acute toxicity LD50 oral vs i.p. and B/P ratio, sodium salts (species not restated). In kind it is in vivo. The settings on record: in vivo. An excerpt:
While the ratio for the reference salt, sodium chloride, is greater than 205.4/61.2=3.36, it is, for the imino compounds of Examples 1 and 5 7.0/3.0=2.33 and 6.7/4.4=1.52, respectively, and, for the amino compounds of Examples 2 and 6 (while not strictly determined but without doubt greater than 1), respectively greater than 20.1/20.1=1 and greater than […].

Setting [9] is: ip, i.p., read-out: LD50 i.p. (P).
Where [10] appears, read: oral, read-out: LD50 by gastric tubage (B).
The mark [11] stands for this setting: one patient, 3 gelatine-coated pills (750 mg, 32 mg Mg ion daily).

With `[Cl-].[Cl-].[Mg+2]` [magnesium chloride, reference compound], the “B/P ratio (oral LD50 / i.p. LD50)” value with Swiss I.O.P.S. mice was 2.04; in [1], over 8.99. Also, the “LD50 by gastric tubage (B)” value is 19.2 mmol/kg with Swiss I.O.P.S. mice (oral) and “greater than 39.3 mmol/kg” in [1] (oral).
As to `Cc1ncc(CO)c(CNCCCS(=O)(=O)[O-])c1O.[K+]`, the solubility in acetone result in “Solubility” was “Insoluble”. In the data set “Solubility”, the solubility in water entry is on record as “Soluble”. In addition, in the data set “in vivo” (B/P ratio (oral LD50 / i.p. LD50), Swiss I.O.P.S. mouse), the selectivity ratio is 1.19. Moreover, the LD50 in the data set “in vivo” (ip, LD50 i.p. (P), Swiss I.O.P.S. mouse) amounted to 14200 µmol/kg; in the data set “in vivo” (po, LD50 by gastric tubage (B), Swiss I.O.P.S. mouse), 17000 µmol/kg. The ED50 in data set [2] (read-out: ED50 rolling) and in data set [2] (read-out: ED50 trembling) was 270 µmol/kg throughout. Moreover, the “activity relative to taurine” value in data set [2] (test of Frances et al.) stood at 17 times.
Consider `NCCCS(=O)(=O)O` [homotaurine, 3-aminopropanesulfonic acid], for which the “antagonism of neurotoxic or convulsant activity of kainic acid” value in data set [3] is “antagonises the neurotoxic or convulsant activity of kainic acid”. Also, the “reduction of the neurotoxic effect of kainic acid (wet dog shaking)” value in [4] is given as “no significant reduction”. Further, in the data set on insulin, the “potentiation of the hypoglycemic activity of insulin, intravenous” value is recorded as “active intravenously”; the “potentiation of the hypoglycemic activity of insulin, oral” value was “not orally active”; the “oral activity after the metabolic and neurologic tests” value is “inactive”.
For the compound `NCCS(=O)(=O)O` [Taurine, 2-aminoethanesulfonic acid], in [4], the “reduction of the neurotoxic effect of kainic acid (wet dog shaking)” value is “no significant reduction”. In the data set with insulin, the “potentiation of the hypoglycemic activity of insulin, intravenous” value is given as “active intravenously”; the “potentiation of the hypoglycemic activity of insulin, oral” value is “not orally active”; the “oral activity after the metabolic and neurologic tests” value is “inactive”. Also, the ED50 in [2] (read-out: ED50 rolling) is 4670 µmol/kg. Further, the 50% effective dose (ED50) in data set [2] (read-out: ED50 trembling) was 4340 µmol/kg.
With `Cc1ncc(CO)c(C=NCCS(=O)(=O)O)c1O` [Example 13, Magnesium β-(3-hydroxy-5-hydroxymethyl-2-methyl-4-pyridylmethyleneimino)ethanesulfonate], the solubility in methanol entry in the data set “Solubility” was “Insoluble”. For the same compound, the “B/P ratio (oral LD50 / i.p. LD50)” value in the data set on Swiss I.O.P.S. mice stood at 1.17. The compound also returned an LD50 in “in vivo” (ip) of 2800 µmol/kg. The LD50 in “in vivo” (po) came to 3300 µmol/kg. In [5], the “onset of hypercorrection of erythrocyte magnesium” value is reported as “third day”, the “onset of correction of erythrocyte magnesium” value is “first day”, the “aggression of deficient rats with respect to mice (muricide activity)” value is on record as “reduced aggression” and the “erythrocyte magnesium level (hypercorrection)” value is given as 79.2 mg. The 50% lethal dose (LD50) in data set [6] (setting [9]) was determined as 2200 µmol/kg. In data set [6], the selectivity ratio was 1.5. The LD50 in data set [6] (setting [10]) turned out to be 3300 µmol/kg. Moreover, in data set [7] (750 mg daily (32 mg Mg ion) vs conventional magnesium salts at doses 10 times larger), the “activity in controlling magnesium deficiency versus conventional magnesium salts” value was “more active”. In addition, the “symptoms (headache, asthenia, cramp)” value in [7] (one patient, 3 gelatine-coated pills) is recorded as “regression”. Besides, in data set [7] (setting [11]), the “erythrocyte magnesium level, first month” value stood at 48 mg/L and the “erythrocyte magnesium level, second month” value was found to be 53 mg/L. Further, the “erythrocyte magnesium level after interruption of administration” value in data set [7] (one patient, relapse at subsequent monthly control) was “about 45 mg/l”.
For vitamin B6, the “oral activity after the metabolic and neurologic tests” value in the data set with insulin is “inactive”.
`Cc1ncc(CO)c(C=NCCCS(=O)(=O)O)c1O` [Example 5, Sodium γ-(3-hydroxy-5-hydroxymethyl-2-methyl-4-pyridylmethyleneimino)propanesulfonate]: in “Solubility” (acetone), the solubility in acetone result is on record as “Insoluble”. In addition, the “solubility in alcohol / ethanol” value in the data set “Solubility” (alcohol or ethanol) is given as “Insoluble”. Besides, the solubility in water result in the data set “Solubility” (water) is listed as “Soluble”. Moreover, in data set [8], the selectivity ratio was determined as 1.52. In addition, the median lethal dose (LD50) is 4400 µmol/kg in data set [8] (ip, read-out: LD50 i.p. (P)) and 6700 µmol/kg in data set [8] (setting [10]).
As to `Cc1ncc(CO)c(C=NCCCS(=O)(=O)O)c1O` [Example 14, Magnesium γ-(3-hydroxy-5-hydroxymethyl-2-methyl-4-pyridylmethyleneimino)propanesulfonate], the solubility in acetone entry in the data set “Solubility” (acetone) is listed as “Insoluble”. Moreover, the solubility in methanol entry in the data set “Solubility” was “Insoluble”. For the same compound, the solubility in water entry in “Solubility” (water) is “Soluble”. Also, the “B/P ratio (oral LD50 / i.p. LD50)” value with Swiss I.O.P.S. mice worked out at 1.24. Moreover, the median lethal dose (LD50) in “in vivo” (ip) was found to be 3300 µmol/kg. In “in vivo” (po), this compound yielded an LD50 of 4100 µmol/kg. In [5], the “onset of hypercorrection of erythrocyte magnesium” value is on record as “third day”, the “onset of correction of erythrocyte magnesium” value is given as “first day”, the “aggression of deficient rats with respect to mice (muricide activity)” value is “reduced aggression” and the “erythrocyte magnesium level (hypercorrection)” value worked out at 75.8 mg. Besides, the LD50 in [6] (setting [9]) was 2400 µmol/kg. Further, the selectivity ratio in data set [6] was found to be 1.66. The LD50 in data set [6] (setting [10]) turned out to be 4200 µmol/kg.
Regarding `Cc1ncc(CO)c(CNCCS(=O)(=O)[O-])c1O.[Na+]` [Example 2, Sodium β-(3-hydroxy-5-hydroxymethyl-2-methyl-4-pyridylmethylamino)ethanesulfonate], in “Solubility” (acetone), the solubility in acetone entry is “Insoluble”. Also, the solubility in methanol entry in “Solubility” is on record as “Poorly soluble”. Also, the solubility in water result in “Solubility” (water) is given as “Soluble”. The selectivity ratio in [8] is over 1. Also, the median lethal dose (LD50) in data set [8] (ip, read-out: LD50 i.p. (P)) is 20100 µmol/kg; in [8] (setting [10]), over 20100 µmol/kg.

(Values after patent publication US4563470A, “N-Substituted α,ωamino and imino-sulfonic acid salts and their application as cationic vectors of high cellular penetration” (Les Laboratories Meram, priority 1982, dated 1986).)
